Source: US9604931B2, “Nuclear receptor binding agents” (GTx, Inc., priority 2007, dated 2017)
pKi: −log10 of the molar value. Entries after “also recorded” stand apart in the source; their conditions may differ.

Tests used:
[1] = molecular target: ERα ligand binding domain (Homo sapiens, UniProt P03372); assay: Competitive [3H]-estradiol binding assay, ER-α (Example 21); conditions: 100 nM of compound; read-out: Percent Inhibition of [3H]-Estradiol Binding to ER-α
Description: (§1) ER binding affinity was determined via one of the following methods:
(§2) Briefly, the incubation mixture was filtered through a high affinity protein binding filter, and washed several times to remove any unbound radioactivity. The filter plate was air dried and sealed on the bottom.
(§3) Nonspecific binding was subtracted from total binding to yield specific binding.

Cyp 3A and/or Cyp 2C9 = assay: Cyp inhibition (data not shown); type: in vitro ADME
[2] = molecular target: ERβ ligand binding domain (Homo sapiens, UniProt Q92731); assay: Competitive [3H]-estradiol binding assay, ER-β (Example 21)
Sequence of ERβ ligand binding domain (Q92731 whole entry, looked up, the tested form may be a part): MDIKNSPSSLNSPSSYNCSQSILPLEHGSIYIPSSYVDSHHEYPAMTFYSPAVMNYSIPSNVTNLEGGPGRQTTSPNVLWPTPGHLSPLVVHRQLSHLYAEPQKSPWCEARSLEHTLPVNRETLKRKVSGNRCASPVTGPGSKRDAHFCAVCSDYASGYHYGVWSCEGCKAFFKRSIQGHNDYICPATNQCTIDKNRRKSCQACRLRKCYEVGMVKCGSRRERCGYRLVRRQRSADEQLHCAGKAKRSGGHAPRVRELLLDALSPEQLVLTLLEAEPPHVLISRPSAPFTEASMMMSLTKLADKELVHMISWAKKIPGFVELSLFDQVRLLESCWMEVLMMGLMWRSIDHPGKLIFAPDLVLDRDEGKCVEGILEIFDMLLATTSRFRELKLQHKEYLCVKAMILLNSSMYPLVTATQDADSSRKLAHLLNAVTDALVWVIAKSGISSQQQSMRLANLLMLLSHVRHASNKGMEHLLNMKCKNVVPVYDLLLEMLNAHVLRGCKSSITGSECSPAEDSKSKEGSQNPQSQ
Description: as §1, §2, §3

ER-β = ER-β (Rattus norvegicus (Rat), UniProt Q62986); assay: ER-β transactivation (ERE-LUC) in COS or 293 cells; type: cell-based
Sequence of ER-β (Q62986 whole entry): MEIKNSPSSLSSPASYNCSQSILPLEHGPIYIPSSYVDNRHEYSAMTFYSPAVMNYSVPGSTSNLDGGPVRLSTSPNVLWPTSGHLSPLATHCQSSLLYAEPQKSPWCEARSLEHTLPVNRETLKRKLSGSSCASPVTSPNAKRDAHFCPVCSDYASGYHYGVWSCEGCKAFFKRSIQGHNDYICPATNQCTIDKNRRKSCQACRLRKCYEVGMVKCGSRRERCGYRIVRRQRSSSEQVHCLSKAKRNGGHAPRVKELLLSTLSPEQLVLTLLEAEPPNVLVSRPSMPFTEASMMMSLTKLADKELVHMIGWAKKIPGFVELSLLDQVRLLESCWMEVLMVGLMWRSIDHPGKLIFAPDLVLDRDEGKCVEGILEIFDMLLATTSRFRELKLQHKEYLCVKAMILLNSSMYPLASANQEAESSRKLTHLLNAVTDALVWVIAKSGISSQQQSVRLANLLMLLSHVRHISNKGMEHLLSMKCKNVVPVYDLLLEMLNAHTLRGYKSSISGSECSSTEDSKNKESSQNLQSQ

[3] = system: Carrageenan-induced paw edema; assay: Carrageenan-induced paw edema; type: in vivo; conditions: per-oral, 1 hr prior to Carrageenan; measured 4 hours post-Carrageenan
Description: FIG. 14 depicts the effect of 12b on the edema volume which was induced by Carrageenan (i.e. Carrageenan-induced […] as an acute inflammation model).
To determine the anti-inflammatory effects of ER-β NRBAs in vivo, animal paws were injected with carrageenan, which elicits an acute local inflammatory response.

[4] = system: LNCaP prostate cancer cells; assay: 3H thymidine incorporation, LNCaP cells; type: cell-based; conditions: 6 days treatment
Description: (§4) The effects of treatment of an ER-β selective NRBA of this invention on cancer cell proliferation was examined using LNCaP prostate cancer cells and C-26 colon cancer cells. LNCaP or C-26 cells were plated in growth medium in 24 well and 6 well plates, respectively. LNCaP cells were treated for 6 days and C-26 cells were treated for 3 days at the indicated concentration. ^3H thymidine incorporation was measured at the end of treatment as an indicator of cell proliferation.

ER-α = ER-α (Rattus norvegicus (Rat), UniProt P06211); type: cell-based; conditions: 100 nM compound compared to 1 nM estradiol
Description: COS or 293 cells were plated in DME without phenol red+10% cs FBS at 90,000 cells per well in 24 well plates, and were transfected with 0.25 μg of the vector “ERE-LUC”, where a firefly luciferase gene was driven by two estrogen responsive elements and 0.02 μg of the control CMV-LUC, Renilla where a luciferase gene was driven by a CMV promoter. […] All the receptors were cloned from rat tissue into the PCR3.1 vector backbone. Twenty four hours post transfection, cells were treated with compounds of this invention, estrogen, DHT, and other NRBAs or combinations thereof. Cells were harvested 48 hrs after transfection, and assayed for firefly and Renilla luciferase activity.

[5] = system: LNCaP cells and human prostate stromal cells xenograft; assay: LNCaP-stromal cell xenograft tumor growth; type: in vivo, nude mice; conditions: 30 mg/kg/day for 21 days
Description: Prostate tumor xenografts were established with LNCaP cells and human prostate stromal cells in nude mice to establish the in vivo anti-proliferative effects of these ER-β NRBAs. A 4:1 ratio (based on cell number) of LNCaP:stroma cells was injected subcutaneously in nude mice and allowed to grow until they attained 100 mm^3 in volume, as measured by calipers. […] Tumor volumes were measured twice a week and percent tumor volume calculated, after 10, 14 and 21 days.

C-26 colon cancer cells = assay: 3H thymidine incorporation, C-26 cells; type: cell-based; conditions: 3 days treatment
Description: as §4

[6] = system: Rat Aortic Smooth Muscle Cells (RASMC); assay: RASMC cell proliferation assay (WST-1); type: cell-based; conditions: 10 μM and 30 μM
Description: EC50 values were calculated using WinNonLin 5.0.1 using the inhibitory effect sigmoid Emax model.

uterus = assay: Uterotropic assay; conditions: 10 mg/kg/day orally, 3 days
Description: Statistical differences among groups were evaluated by one-way ANOVA. Rats were treated for 3 consecutive days and then sacrificed 24 h after the last dose. The body of the uterus was cut just above its junction with the cervix and at the junction of the uterine horns with the ovaries. The uterus was weighed with and without intrauterine fluid. Statistical comparisons were made between the weights of empty uteri.

Sequence of ERα ligand binding domain (P03372 whole entry, looked up, the tested form may be a part): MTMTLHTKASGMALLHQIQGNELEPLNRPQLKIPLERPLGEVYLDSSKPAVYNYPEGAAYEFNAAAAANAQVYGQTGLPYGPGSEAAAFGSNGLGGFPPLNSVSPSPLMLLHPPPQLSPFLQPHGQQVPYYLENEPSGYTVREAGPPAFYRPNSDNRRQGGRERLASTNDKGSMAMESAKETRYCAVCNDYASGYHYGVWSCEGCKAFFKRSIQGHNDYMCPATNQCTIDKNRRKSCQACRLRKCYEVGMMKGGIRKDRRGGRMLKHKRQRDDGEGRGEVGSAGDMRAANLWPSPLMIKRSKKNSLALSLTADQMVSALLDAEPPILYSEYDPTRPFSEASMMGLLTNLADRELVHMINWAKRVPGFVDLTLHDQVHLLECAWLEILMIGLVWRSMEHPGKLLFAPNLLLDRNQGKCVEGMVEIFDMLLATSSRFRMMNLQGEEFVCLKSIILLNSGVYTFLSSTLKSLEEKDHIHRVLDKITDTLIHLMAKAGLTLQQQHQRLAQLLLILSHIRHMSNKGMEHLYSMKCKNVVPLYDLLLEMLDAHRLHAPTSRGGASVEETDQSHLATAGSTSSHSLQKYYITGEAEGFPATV

O=c1c2ccc(O)cc2c(Br)cn1-c1ccc(O)cc1 [12b, 4-bromo-6-hydroxy-2-(4-hydroxyphenyl)-isoquinolin-1(2H)-one]
inhibition at 0.1 µM [1]: 0%
Inhibition of Cyp 3A and/or Cyp 2C9 (Cyp 3A and/or Cyp 2C9): exception
Ki Ratio (ER-α/ER-β) [2]: 20
pKi ([2]; read-out: ER-β binding constant (Ki)): 7.31
inhibition at 0.1 µM ([2]; read-out: Percent Inhibition of [3H]-Estradiol Binding to ER-β): 53.6%
ER-β agonist activity (ER-β): ER-β agonists; also recorded: ER-β agonist activity
activation at 0.1 µM (ER-β; HEK293, 48 h, read-out: Estradiol activity at 100 nM of NRBA, ER-β, 100 nM compound compared to 1 nM estradiol): 79%
Reduction in paw edema [3]: 53%
Growth of LNCaP prostate cancer cells [4]: significantly inhibited
Estradiol activity at 100 nM of NRBA, ER-α (ER-α): 31.2%
Xenograft tumor growth [5]: inhibited the growth of tumor significantly
Growth of C-26 colon cancer cells (C-26 colon cancer cells): significantly inhibited

CC/C(=C(\c1ccccc1)c1ccc(OCCN(C)C)cc1)c1ccccc1 [Tamoxifen, reference compound]
Toxicity to RASMC (cell numbers reduced compared to day 0) [6]: toxicity
Uterine weight / proliferation of uterus (uterus): stimulated the proliferation of uterus significantly
